Experimental data published in the SangsterLogP compilation.

Row | logP | SMILES
1 | 2.27 | CCC(O)C(C)(C)C (stereo unspecified)
2 | 6.64 | CCCCCCCCCCCCCCCO
3 | 3.36 | CCCCCC(O)CCC (stereo unspecified)
4 | 6.11 | CCCCCCCCCCCCCCO
5 | 2.39 | CC(C)(C)CCCO
6 | 1.67 | CC(C)CC(C)(C)O
7 | 2.31 | CCCCC(O)CC (stereo unspecified)
8 | 2.39 | CCCC(C)(C)CO
9 | 1.67 | CC(C)CC(C)O (stereo unspecified)
10 | 3.36 | CCCCCCC(O)CC (stereo unspecified)
11 | 1.57 | CCC(C)(C)CO
12 | 1.78 | CCC(CC)CO
13 | 2.19 | CC(C)CC(C)CO (stereo unspecified)
14 | 3.36 | CCCCC(O)CCCC
15 | 2.31 | CC(C)C(O)C(C)C

Row | SMILES | logP
16 | CC(C)(C)CCO | 1.57
